From patent publication US20250367231A1, “MULTIFUNCTIONAL BIOADHESIVE DESIGNED WITH CHEMICAL FUNCTIONALITY INDUCED SUTURED BIOLOGICAL BUILDING BLOCKS” (The Regents of the University of California, priority 2022, published 2025)

Conditions: ambient conditions; for time to change in color (self-oxidation of catechol moieties): aqueous solution
Excerpt: Dopamine (Dopa), a naturally derived neurotransmitter molecule^[4], also resembles with the key moiety in mussel foot proteins (catechol)^[11] and has been intensely utilized to develop adhesive biomaterials with diverse clinical importance^[12]. In view of the biological relevance of multifunctional catecholic moieties, herein, Dopa skeleton was chemically modified with a nitro-group to modulate the electronic properties of the aromatic ring^[13] (FIG. 1a). To use the nitro incorporated dopamine (nDopa) moiety for designing functional biomaterials, it was further covalently conjugated with a methacrylate group through an amide linkage (FIG. 1a).

Question: With `NCCc1ccc(O)c(O)c1` [Dopa, dopamine] as the compound, how does the “time to change in color (self-oxidation of catechol moieties)” value read?
Answer: 1 h

Question: Which “time to change in color (self-oxidation of catechol moieties)” value does the source give for `C=C(C)C(=O)NCCc1ccc(O)c(O)c1` [MAD, methacrylated dopamine] here?
Answer: 24 h

Question: For `C=C(C)C(=O)NCCc1cc(O)c(O)cc1[N+](=O)[O-]` [nMAD, methacrylated nitro-dopamine], which time without self-oxidation is on record?
Answer: > 7 days
